Test results from ChEMBL document CHEMBL5143538, “Discovery, Structure Correction, and Biosynthesis of Actinopyrones, Cytotoxic Polyketides from the Deep-Sea Hydrothermal-Vent-Derived Streptomyces sp. SCSIO ZS0520” (J Nat Prod, 2022).

Tests used:
Format in all cases: functional, cell-based
MDA-MB-231 = experiment: Cytotoxicity against human MDA-MB-231 cells assessed as inhibition of cell proliferation measured after 68 hrs by MTT assay; settings: MDA-MB-231, 68 h
NCI-H460 = experiment: Cytotoxicity against human NCI-H460 cells assessed as inhibition of cell proliferation measured after 68 hrs by MTT assay; settings: NCI-H460, 68 h
HT-29 = experiment: Cytotoxicity against human HT-29 cells assessed as inhibition of cell proliferation measured after 68 hrs by MTT assay; settings: HT-29, 68 h
Huh-7 = experiment: Cytotoxicity against human Huh-7 cells assessed as inhibition of cell proliferation measured after 68 hrs by MTT assay; settings: Huh-7, 68 h
A549 = experiment: Cytotoxicity against human A549 cells assessed as inhibition of cell proliferation measured after 68 hrs by MTT assay; settings: A549, 68 h
MDA-MB-435 = experiment: Cytotoxicity against human MDA-MB-435 cells assessed as inhibition of cell proliferation measured after 68 hrs by MTT assay; settings: MDA-MB-435, 68 h

| SMILES | IC50 (MDA-MB-231) [µM] | IC50 (NCI-H460) [µM] | IC50 (HT-29) [µM] | IC50 (Huh-7) [µM] | IC50 (A549) [µM] | IC50 (MDA-MB-435) [µM] |
| --- | --- | --- | --- | --- | --- | --- |
| C/C=C(\C)[C@@H](O)[C@@H](C)/C=C(C)/C=C/C[C@H](C)/C=C/c1oc(=O)c(C)c(O)c1C | > 50 | > 50 | > 50 | > 50 | > 50 | > 50 |
| C/C=C(\C)[C@@H](O)[C@@H](C)/C=C(C)/C=C/C[C@H](C)/C=C/c1oc(OC)c(C)c(=O)c1C | > 50 | > 50 | > 50 | > 50 | > 50 | > 50 |
| C/C=C(\C)[C@@H](O)[C@@H](C)/C=C(C)/C=C/C[C@H](C)/C=C/C(=O)CC | > 50 | > 50 | > 50 | > 50 | > 50 | > 50 |
| C/C=C(\C)[C@@H](O[C@@H]1O[C@H](CO)[C@@H](O)[C@H](O)[C@H]1O)[C@@H](C)/C=C(C)/C=C/C[C@H](C)/C=C/c1oc(OC)c(C)c(=O)c1C (stereo in doubt) | 1 | 0.66 | 2.22 | 1.18 | 0.75 | 0.26 |
| COc1cccc2c1C(=O)c1c(O)c3c(c(O)c1C2=O)C[C@@](O)(C(=O)CO)C[C@@H]3O[C@H]1C[C@H](N)[C@@H](O)[C@H](C)O1 [EPIRUBICIN] | 1.2 | 0.06 | 3.36 | 9.12 | 1.32 | 0.23 |
